Data: the supplement of paper PMC4862054

Legend:
Settings in all cases: incubation time: 72 h
[1] = system: Hs578T; assay: normalised response (% of control), CellTox Green; higher = less cell death (100 = DMSO, 0 = benzethonium chloride kill control)
Procedure, shortened: (§1)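 Values are normalised signals, each belonging to one concentration of the series. Breast cancer cells (20 µl suspension) were seeded into 384-well plates with compound at 5 concentrations in 10-fold steps over a compound-specific 10,000-fold range and incubated 72 h. Readouts were CellTox Green fluorescence (485/520 nm), then CellTiter-Glo luminescence after 10 min at room temperature, with each plate set to 0.1 % DMSO as 100 and a positive kill control as 0.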

[2] = system: MCF-10A; assay: as above
Procedure, shortened: as §1

[3] = system: MFM-223; assay: as above
Procedure, shortened: as §1

[4] = system: CAL-120; assay: as above
Procedure, shortened: as §1

[5] = system: BT-549; assay: as above
Procedure, shortened: as §1

[6] = system: HCC1143; assay: as above
Procedure, shortened: as §1

[7] = system: HCC1599; assay: as above
Procedure, shortened: as §1

[8] = system: HCC1937; assay: as above
Procedure, shortened: as §1

[9] = system: CAL-51; assay: as above
Procedure, shortened: as §1

[10] = system: CAL-85-1; assay: as above
Procedure, shortened: as §1

[11] = system: CAL-148; assay: as above
Procedure, shortened: as §1

[12] = system: BT-474; assay: as above
Procedure, shortened: as §1

[13] = system: MDA-MB-453; assay: as above
Procedure, shortened: as §1

[14] = system: DU-4475; assay: as above
Procedure, shortened: as §1

[15] = system: MDA-MB-436; assay: as above
Procedure, shortened: as §1

[16] = system: MDA-MB-231; assay: as above
Procedure, shortened: as §1

[17] = system: MDA-MB-468; assay: as above
Procedure, shortened: as §1

[18] = system: HDQ-P1; assay: as above
Procedure, shortened: as §1

[19] = system: Hs578T; assay: normalised response (% of control), CellTiter-Glo; higher = more viable cells (100 = DMSO, 0 = benzethonium chloride kill control)
Method: (§2)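 DSRT, 72 h incubation, CellTox Green / CellTiter-Glo readout. Signal is normalised to DMSO and benzethonium chloride controls. Value is the normalised response at dose 3.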

[20] = system: MCF-10A; assay: as above
Method: as §2

[21] = system: MFM-223; assay: as above
Method: as §2

[22] = system: CAL-120; assay: as above
Method: as §2

[23] = system: BT-549; assay: as above
Method: as §2

[24] = system: HCC1143; assay: as above
Method: as §2

[25] = system: HCC1599; assay: as above
Method: as §2

[26] = system: SK-BR-3; assay: as above
Method: as §2

[27] = system: HCC1937; assay: as above
Method: as §2

[28] = system: CAL-51; assay: as above
Method: as §2

[29] = system: CAL-85-1; assay: as above
Method: as §2

[30] = system: CAL-148; assay: as above
Method: as §2

[31] = system: BT-474; assay: as above
Method: as §2

[32] = system: MDA-MB-453; assay: as above
Method: as §2

[33] = system: DU-4475; assay: as above
Method: as §2

[34] = system: MDA-MB-436; assay: as above
Method: as §2

[35] = system: MDA-MB-231; assay: as above
Method: as §2

[36] = system: MDA-MB-468; assay: as above
Method: as §2

[37] = system: HDQ-P1; assay: as above
Method: as §2

SMILES | normalised response [1] [%] | normalised response [2] [%] | normalised response [3] [%] | normalised response [4] [%] | normalised response [5] [%] | normalised response [6] [%] | normalised response [7] [%] | normalised response [8] [%] | normalised response [9] [%] | normalised response [10] [%] | normalised response [11] [%] | normalised response [12] [%] | normalised response [13] [%] | normalised response [14] [%] | normalised response [15] [%] | normalised response [16] [%] | normalised response [17] [%] | normalised response [18] [%] | normalised response [19] [%] | normalised response [20] [%] | normalised response [21] [%] | normalised response [22] [%] | normalised response [23] [%] | normalised response [24] [%] | normalised response [25] [%] | normalised response [26] [%] | normalised response [27] [%] | normalised response [28] [%] | normalised response [29] [%] | normalised response [30] [%] | normalised response [31] [%] | normalised response [32] [%] | normalised response [33] [%] | normalised response [34] [%] | normalised response [35] [%] | normalised response [36] [%] | normalised response [37] [%]
C[C@]12CC[C@H](O)CC1=CC[C@@H]1[C@@H]2CC[C@]2(C)C(c3cccnc3)=CC[C@@H]12 [Abiraterone] (50 nM) | 107 | 63.7 | 108 | 101 | 96.5 | 109 | 110 | 116 | 105 | 95 | 106 | 100 | 104 | 101 | 96.5 | 58 | 128 | 111 | 104 | 99.8 | 105 | 106 | 101 | 104 | 124 | 103 | 95.1 | 81.5 | 105 | 108 | 104 | 99.7 | 107 | 99.7 | 103 | 101 | 100
COc1ccccc1S(=O)(=O)Nc1ccc2c(c1)CN(C)C(=O)N2 [PFI-1] (100 nM) | 96.8 | 92.9 | 106 | 106 | 118 | 82.6 | 111 | 51.5 | 102 | 115 |  | 105 | 115 | 110 | 79.4 | 123 | 125 | 78.4 | 99.6 | 111 | 104 | 106 | 99.4 | 100 | 87.7 | 105 | 91.4 | 79 | 96.6 | 105 | 97.4 | 105 | 100 | 104 | 99.5 | 96.8 | 94.5
C/C(=C\c1csc(C)n1)[C@@H]1C[C@@H]2O[C@]2(C)CCC[C@H](C)[C@H](O)[C@@H](C)C(=O)C(C)(C)[C@@H](O)CC(=O)O1 [Patupilone] (10 nM) | 84 | 103 | 96.3 | 93.6 | 97.3 | 108 | 106 | 99.4 | 29.3 | 79.5 | 102 | 95.7 | 97.9 | 99.5 | 76.8 | 92.9 | 34.5 | 110 | 90.9 | 89.1 | 107 | 105 | 55.1 | 77.5 | 114 | 99.7 | 100 | 56 | 80.2 | 105 | 94.6 | 101 | 104 | 79.9 | 97.9 | 53.4 | 98.7
COc1ccc(-c2ccc3c(N4CCOC[C@@H]4C)nc(N4CCOC[C@@H]4C)nc3n2)cc1CO [AZD8055] (100 nM) | 93.9 | 84.6 | 67 | 98.2 | 103 | 80.1 | 87.7 | 97.7 | 82.3 | 104 | 79.2 | 96.5 | 85.5 | 94.9 | 97.7 | 94.6 | 13.6 | 109 | 49.7 | 50.4 | 36.9 | 41.5 | 40.2 | 45.1 | 93 | 27.5 | 66.9 | 35.7 | 41.1 | 49.5 | 72 | 42.1 | 80.1 | 51.5 | 62.3 | 47.3 | 51.3
